Laboratory results as given in ChEMBL document CHEMBL3997778, “β-Dihydroagarofuran-Type Sesquiterpenes from the Seeds of Celastrus monospermus and Their Lifespan-Extending Effects on the Nematode Caenorhabditis elegans” (2016).

test system: Caenorhabditis elegans; assay: Increase in life span of Caenorhabditis elegans Bristol N2 at late L4 larval stage at 50 uM in presence of 5-fluorodesoxyuridine relative to control; assay type: functional

With CC(=O)O[C@@H]1[C@@H]2[C@@H](OC(C)=O)[C@]3(OC2(C)C)[C@H](C)C[C@H](OC(=O)/C=C/c2ccccc2)[C@H](OC(C)=O)[C@@]3(C)[C@@H]1OC(=O)c1ccccc1 as the compound, how does the ILS at 50 µM read?
The ILS at 50 µM was 15%.

CC(=O)O[C@@H]1[C@@H]2[C@@H](OC(C)=O)[C@]3(OC2(C)C)[C@H](C)C[C@@H](OC(C)=O)[C@H](OC(C)=O)[C@@]3(C)[C@@H]1OC(=O)c1ccccc1 was tested. Which ILS at 50 µM did it give?
The ILS at 50 µM was 17%.

Which ILS at 50 µM does the source give for CC(=O)O[C@@H]1[C@@H]2[C@@H](OC(C)=O)[C@]3(OC2(C)C)[C@H](C)CC(=O)[C@H](OC(C)=O)[C@@]3(C)[C@@H]1OC(=O)c1ccccc1 here?
Its ILS at 50 µM is 37%.

With CC(=O)OC[C@]12[C@@H](OC(=O)c3ccccc3)[C@@H](OC(C)=O)[C@@H]3[C@@H](OC(C)=O)[C@]1(OC3(C)C)[C@H](C)C[C@H](OC(C)=O)[C@@H]2OC(C)=O as the compound, how does the ILS at 50 µM read?
The ILS at 50 µM was 16%.

CC(=O)O[C@@H]1[C@H]2C[C@H](OC(=O)c3ccccc3)[C@]3(C)[C@@H](OC(C)=O)[C@H](OC(C)=O)C[C@@H](C)[C@@]13OC2(C)C was tested. Which ILS at 50 µM did it give?
Its ILS at 50 µM is 14%.

With CC(=O)O[C@H]1[C@@H]2[C@@H](OC(=O)c3ccccc3)[C@]3(OC2(C)C)[C@H](C)C[C@@H](OC(C)=O)[C@H](OC(C)=O)[C@@]3(C)[C@H]1OC(=O)c1ccccc1 as the compound, how does the ILS at 50 µM read?
The ILS at 50 µM was 28%.

With CC(=O)O[C@@H]1[C@@H]2[C@@H](OC(C)=O)[C@]3(OC2(C)C)[C@H](C)CC[C@H](O)[C@@]3(C)[C@@H]1OC(=O)c1ccccc1 as the compound, how does the ILS at 50 µM read?
The ILS at 50 µM was 16%.

For CC(=O)O[C@H]1[C@@H]2C[C@]3(OC2(C)C)[C@H](C)C[C@H](OC(C)=O)[C@@H](OC(C)=O)[C@@]3(C)[C@H]1OC(=O)c1ccccc1, which ILS at 50 µM is on record?
The ILS at 50 µM was 12%.

With CC(=O)O[C@H]1[C@@H]2[C@@H](OC(C)=O)[C@]3(OC2(C)C)[C@H](C)C[C@@H](OC(C)=O)[C@H](OC(C)=O)[C@@]3(C)[C@H]1OC(=O)c1ccccc1 as the compound, how does the ILS at 50 µM read?
The ILS at 50 µM was 15%.

test system: Caenorhabditis elegans; assay: Increase in life span of Caenorhabditis elegans Bristol N2 at late L4 larval stage at 100 uM in presence of 5-fluorodesoxyuridine relative to control; assay type: functional

How did the ILS at 100 µM turn out when CO[C@H]1C[C@@H]2CC[C@@H](C)[C@@](O)(O2)C(=O)C(=O)N2CCCC[C@H]2C(=O)O[C@H]([C@H](C)C[C@@H]2CC[C@@H](O)[C@H](OC)C2)CC(=O)[C@H](C)/C=C(\C)[C@@H](O)[C@@H](OC)C(=O)[C@H](C)C[C@H](C)/C=C/C=C/C=C/1C [SIROLIMUS] was run?
The ILS at 100 µM was 38%.
